The values below come from US11773081B2, “Pharmaceutical composition for preventing or treating wound, comprising indirubin derivative as active ingredient” (CK Regeon Inc., priority 2018, dated 2023).

The test system of the assay is mouse acute wound. Nature of the assay: Wound healing effect of extract and indirubin derivative mixtures in mouse acute wound (Test Example 6). Format: in vivo. The note with it: mouse acute wound tissue, fluorescence staining. The protocol:
Wound healing-promoting effect was investigated after treating an animal model with the indirubin derivative of Example 1 (0.5 mM), the indirubin derivative of Example 2 (0.5 mM) or the mixtures of Examples 12 and 13 (0.5 mM indirubin derivative mixed with 1 μg/mL Euodia sutchuenensis Dode extract).
The hair on the back of 7-week-old C3H mouse that entered the resting period was removed and a 1.5×1.5 cm^2 wound was made on the hair-removed region. A sample was applied to a positive control group, once daily for 12 days. After measuring wound size of the experimental animal on days 0 and 12, the wound tissue was fixed by immersing in 4% paraformaldehyde, embedded in paraffin and then sliced into 4 μm thickness. The sliced tissue was deparaffinized, rehydrated and then the degree of re-epithelialization was compared. Masson's trichrome staining and Picrosirius red staining were conducted for evaluation of the degree of collagen synthesis. For Masson's trichrome staining, a slide was immersed in Weigert's iron hematoxylin solution for 10 minutes and in Biebrich scarlet-acid fuchsin and aniline blue for 5 minutes each. […] The sliced skin tissue was fluorescence-stained using β-catenin, PCNA, keratin 14 and collagen I antibodies and was observed using a fluorescence microscope (FIG. 9a). […]

As for `COc1ccc2c(c1)/C(=C1/Nc3ccccc3/C1=N\O)C(=O)N2` [Example 1, 5-methoxylindirubin-3′-oxime], the “expression of β-catenin, PCNA, keratin 14 and collagen I” value is listed as “slightly lower as compared to the positive control group”.
